Results on 9 compounds are retold here after patent US11382328B2, “Rapid drug discovery methods for pathogen inactivation” (priority 2019, dated 2022).

The test system of this experiment is E. coli strain W3110. Put plainly: Synergy assays: Biolog chemical sensitivity panels with Group IB metal, coefficient of drug interaction (CDI) from relative growth. To be noted: for CDI (coefficient of drug interaction), copper mixed with biocide: Copper (mM) section; for CDI (coefficient of drug interaction), gold + biocide: Gold (μM). It is filed as cell-based.

[1] abbreviates: 1st of 3 copper concentrations (value not shown), 4th of four biocide concentrations.
[2] abbreviates: 2nd of 3 copper concentrations (value not shown), 4th of four biocide concentrations.
Where [3] appears, read: 3rd of 3 copper concentrations (value not shown), 4th of four biocide concentrations.
The mark [4] stands for this setting: Gold 5 μM, biocide concentration 4 of 4, E. coli.
[5] abbreviates: Gold 25 μM, biocide concentration 4 of 4, E. coli.
The mark [6] stands for this setting: Silver 0.5 μM, 4th of four biocide concentrations, E. coli.
Setting [7] is: Silver 1.0 μM, 4th of four biocide concentrations, E. coli.
Where [8] appears, read: Silver 5.0 μM, 4th of four biocide concentrations, E. coli.
Where [9] appears, read: […], biocide concentration 4 of 4, E. coli.
Where [10] appears, read: Gold section of Table 5, first of three gold concentrations (μM, value not given), biocide concentration 4 of 4.
[11] abbreviates: Gold section of Table 5, second of three gold concentrations (μM, value not given), biocide concentration 4 of 4.
The mark [12] stands for this setting: Gold section of Table 5, third of three gold concentrations (μM, value not given), biocide concentration 4 of 4.
The mark [13] stands for this setting: Silver 0.5 μM, biocide concentration 4 of 4.
Where [14] appears, read: Silver 1.0 μM, biocide concentration 4 of 4.
Setting [15] is: Silver 5.0 μM, biocide concentration 4 of 4.
Where [16] appears, read: Copper (mM), 1st of 3 copper concentrations (head line not shown), biocide concentration 4 of 4, E. coli.
[17] abbreviates: Copper (mM), 2nd of 3 copper concentrations (head line not shown), biocide concentration 4 of 4, E. coli.
[18] abbreviates: Copper (mM), 3rd of 3 copper concentrations (head line not shown), biocide concentration 4 of 4, E. coli.

Take `Oc1ccccc1-c1ccccc1` [2-phenylphenol]: the “CDI (coefficient of drug interaction), copper mixed with biocide” value (from here on “CDI … with biocide”) reads like this: under setting [1], “Tox”; under setting [2], “Tox”; under setting [3], “Tox”. Also, the “CDI (coefficient of drug interaction)” value reads like this: under setting [4], “Tox”; under setting [5], “Tox”; under setting [9], “Tox”. Also, the “CDI (coefficient of drug interaction), silver + biocide” value (“CDI … silver + biocide” for short) was “Tox” (Silver 0.5 μM, 3rd of four biocide concentrations, E. coli); “Tox” under setting [6]; “Tox” (Silver 1.0 μM, 3rd of four biocide concentrations, E. coli); “Tox” under setting [7]; “Tox” (Silver 5.0 μM, 3rd of four biocide concentrations, E. coli); “Tox” under setting [8].

Take `COc1ccc(CO)cc1OC` [3,4-dimethoxybenzyl alcohol]: the “CDI … with biocide” value is “Tox” under setting [1], “Tox” under setting [2] and “Tox” under setting [3]. For the same compound, the “CDI (coefficient of drug interaction)” value is reported as “Tox” under setting [10], “Tox” under setting [11] and “Tox” under setting [12]. The CDI entry reads like this: under setting [13], “Tox”; under setting [14], “Tox”; under setting [15], “Tox”.

With `Nc1nc[nH]n1` [3-Amino-1,2,4-triazole], the “CDI … with biocide” value is, setting by setting: under setting [1], “Tox”; under setting [3], “Tox”. Further, the “CDI (coefficient of drug interaction)” value under setting [10] was “Tox”, the “CDI (coefficient of drug interaction)” value under setting [11] is on record as “Tox” and the “CDI (coefficient of drug interaction)” value under setting [12] is “Tox”. Further, the CDI entry is, setting by setting: under setting [13], “Tox”; under setting [14], “Tox”; under setting [15], “Tox”.

For the compound `O=c1cc(O)c2ccccc2o1` [4-Hydroxy-coumarin], the “CDI … with biocide” value is “Tox” under setting [1] and “Tox” under setting [3]. The “CDI (coefficient of drug interaction)” value by setting is: under setting [4], “Tox”; under setting [5], “Tox”; under setting [9], “Tox”. The “CDI … silver + biocide” value is on record as “Tox” under setting [6], “Tox” under setting [7] and “Tox” under setting [8].

Regarding `Cc1ccc2c(Cl)cc(Cl)c(O)c2n1` [5,7-dichloro-8-hydroxyquinaldine], the “CDI … silver + biocide” value reads like this: under setting [6], “Tox”; under setting [7], “Tox”; under setting [8], “Tox”.

Turning to `NC(=O)NN=Cc1ccc([N+](=O)[O-])o1` [5-Nitro-2-furaldehyde semicarbazone], the “CDI (coefficient of drug interaction)” value runs as follows: ([…], biocide concentration 3 of 4, E. coli) “Tox”; under setting [9], “Tox”.

For the compound `Nc1c2ccccc2nc2ccccc12` [9-aminoacridine], under setting [2], the “CDI … with biocide” value was “Tox”. In addition, the “CDI … silver + biocide” value was “Tox” under setting [6], “Tox” under setting [7] and “Tox” under setting [8].

For `N#CC(C#N)=NNc1cccc(Cl)c1` [CCCP, Carbonyl cyanide m-chlorophenylhydrazone], the “CDI (coefficient of drug interaction)” value is “Tox” under setting [16], “Tox” under setting [17] and “Tox” under setting [18]. The CDI result is on record as “Tox” under setting [13], “Tox” under setting [14] and “Tox” under setting [15].

With `O=C(O)/C=C/c1ccccc1` [Cimamic acid], the “CDI (coefficient of drug interaction)” value (Copper (mM), 1st of 3 copper concentrations (head line not shown), biocide concentration 1 of 4, E. coli) amounted to 0.85; the “CDI (coefficient of drug interaction)” value (Copper (mM), 1st of 3 copper concentrations (head line not shown), biocide concentration 2 of 4, E. coli) is recorded as 0.74; the “CDI (coefficient of drug interaction)” value (Copper (mM), 1st of 3 copper concentrations (head line not shown), biocide concentration 3 of 4, E. coli) turned out to be 0.87; the “CDI (coefficient of drug interaction)” value under setting [16] is on record as “Tox”; the “CDI (coefficient of drug interaction)” value (Copper (mM), 2nd of 3 copper concentrations (head line not shown), biocide concentration 1 of 4, E. coli) turned out to be 0.70; the “CDI (coefficient of drug interaction)” value (Copper (mM), 2nd of 3 copper concentrations (head line not shown), biocide concentration 2 of 4, E. coli) came out at 0.79. For the same compound, the “CDI (coefficient of drug interaction)” value reads like this: (Copper (mM), 2nd of 3 copper concentrations (head line not shown), biocide concentration 3 of 4, E. coli) 1.11; under setting [17], “Tox”; (Copper (mM), 3rd of 3 copper concentrations (head line not shown), biocide concentration 1 of 4, E. coli) 0.53; (Copper (mM), 3rd of 3 copper concentrations (head line not shown), biocide concentration 2 of 4, E. coli) 0.54; (Copper (mM), 3rd of 3 copper concentrations (head line not shown), biocide concentration 3 of 4, E. coli) 1.11; under setting [18], “Tox”. The “CDI (coefficient of drug interaction), gold + biocide” value by setting is: (first of 3 gold concentrations, biocide concentration 2 of 4) 1.09; (first of 3 gold concentrations, biocide concentration 3 of 4) 1.19; (first of 3 gold concentrations, biocide concentration 4 of 4) “Tox”; (second of 3 gold concentrations, biocide concentration 1 of 4) 0.99; (second of 3 gold concentrations, biocide concentration 2 of 4) 1.11; (second of 3 gold concentrations, biocide concentration 3 of 4) 0.95. Also, the “CDI (coefficient of drug interaction), gold + biocide” value is “Tox” (second of 3 gold concentrations, biocide concentration 4 of 4); 0.98 (third of 3 gold concentrations, biocide concentration 1 of 4); 0.85 (third of 3 gold concentrations, biocide concentration 2 of 4); 0.96 (third of 3 gold concentrations, biocide concentration 3 of 4); “Tox” (third of 3 gold concentrations, biocide concentration 4 of 4). Besides, the CDI reads like this: (Silver 0.5 μM, biocide concentration 1 of 4) 0.90; (Silver 0.5 μM, biocide concentration 2 of 4) 1.06; (Silver 0.5 μM, biocide concentration 3 of 4) 0.73; under setting [13], “Tox”; (Silver 1.0 μM, biocide concentration 1 of 4) 0.88; (Silver 1.0 μM, biocide concentration 2 of 4) 0.93. The CDI by setting is: (Silver 1.0 μM, biocide concentration 3 of 4) 0.99; under setting [14], “Tox”; (Silver 5.0 μM, biocide concentration 1 of 4) 0.88; (Silver 5.0 μM, biocide concentration 2 of 4) 0.92; under setting [15], “Tox”.
